This assay has as its target T1, human PRS protein (His-Avi-hEPRS (998-1512)) (Homo sapiens, UniProt P07814).
T1 construct: to construct His-Avi-hEPRS (998-1512) expression plasmid; His tag (N); Avi tag (N); TEV cleavage site (ENLYFQG, then S; inferred from the forward primer hEPRS-TEV-NheF) (N); made in house; host or cells: E. coli BL21(DE3)
T1 sequence (P07814 998-1512 limits assumed): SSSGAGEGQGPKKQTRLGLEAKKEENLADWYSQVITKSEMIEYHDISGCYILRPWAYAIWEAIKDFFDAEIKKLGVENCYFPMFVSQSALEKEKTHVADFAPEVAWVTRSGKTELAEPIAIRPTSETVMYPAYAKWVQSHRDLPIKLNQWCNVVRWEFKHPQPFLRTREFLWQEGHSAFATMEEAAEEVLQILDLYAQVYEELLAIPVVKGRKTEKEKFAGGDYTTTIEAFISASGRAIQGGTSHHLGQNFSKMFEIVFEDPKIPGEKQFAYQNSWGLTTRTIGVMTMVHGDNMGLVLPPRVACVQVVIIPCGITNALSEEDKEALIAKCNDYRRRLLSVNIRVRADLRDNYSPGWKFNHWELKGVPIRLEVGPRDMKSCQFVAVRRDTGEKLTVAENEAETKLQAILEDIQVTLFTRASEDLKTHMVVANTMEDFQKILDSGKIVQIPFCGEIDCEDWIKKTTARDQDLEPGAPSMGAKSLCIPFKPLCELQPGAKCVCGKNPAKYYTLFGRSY
In words: PRS inhibitory activity ([32P]pyrophosphate exchange enzyme assay). To be noted: 300 nM test compound; read-out: inhibitory rate (%) of PRS. In kind it is biochemical. The method, boiled down:
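Compound was pre-incubated 60 min with 40 nM His-Avi-hEPRS (998-1512) (stock, E. coli-expressed) in Tris pH 7.5/KCl/DTT/Tween/MgCl2. Reaction began with substrate mix containing 300 μM ATP, 160 μM L-proline, 400 μM [32P]pyrophosphate (stock levels) and ran 30 min at room temperature. Charcoal-bound radioactivity was counted; inhibition was relative to no-reaction control.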

Structures are written as SMILES.

Take `Cc1cc(N2CC[C@@](C#N)(C3CC3)C2=O)cc(C(=O)NCc2cc(F)cc(-c3cnn(C)c3)c2)n1` [Example 159, 4-((3S)-3-cyano-3-cyclopropyl-2-oxopyrrolidin-1-yl)-N-(3-fluoro-5-(1-methyl-1H-pyrazol-4-yl)benzyl)-6-methylpyridine-2-carboxamide]: the inhibition at 0.3 µM is 101%.
